Test results: the OligoGym collection
HELM strings list units from the 5' end as sugar, base in round brackets, then linkage (d deoxyribose, r ribose, m 2'-O-methyl, p phosphodiester). Strings are as the collection lists them; they lack the last nucleoside at the 3' end of the tested compound. [moe] = 2'-O-(2-methoxyethyl) (MOE); [sp] = phosphorothioate linkage; [m5C] = 5-methylcytosine

The substances below were run against ATXN2 (assay: mouse, dose not given). Details: ASO.

Substance | 3 h FOB score
RNA1{[moe](T)[sp].[moe](A)p.[moe](A)p.[moe]([m5C])p.[moe](T)[sp].d(G)[sp].d(G)[sp].d(T)[sp].d(T)[sp].d(T)[sp].d(G)[sp].d([m5C])[sp].d([m5C])[sp].[moe]([m5C])p.[moe](T)p.[moe](T)[sp].[moe](G)}$$$$ (last 3' nucleoside missing) | 6 score 0-7
RNA1{[moe](T)[sp].[moe](A)p.[moe](G)p.[moe](A)p.[moe](G)p.d(T)[sp].d(T)[sp].d(T)[sp].d(T)[sp].d(T)[sp].d(G)[sp].d([m5C])[sp].d([m5C])[sp].d(T)[sp].d(T)[sp].[moe]([m5C])p.[moe]([m5C])p.[moe](A)[sp].[moe](T)}$$$$ (last 3' nucleoside missing) | 2.5 score 0-7
RNA1{[moe](T)[sp].[moe](A)p.[moe](G)p.[moe](T)p.[moe](G)p.d(T)[sp].d(T)[sp].d(T)[sp].d(G)[sp].d(G)[sp].d(G)[sp].d(A)[sp].d(T)[sp].d(G)[sp].d([m5C])[sp].[moe](T)p.[moe](T)p.[moe]([m5C])[sp].[moe](A)}$$$$ (last 3' nucleoside missing) | 6.25 score 0-7
RNA1{[moe](T)[sp].[moe](A)p.[moe](G)p.[moe]([m5C])p.[moe](A)p.d(T)[sp].d([m5C])[sp].d(A)[sp].d(T)[sp].d(T)[sp].d(G)[sp].d(G)[sp].d([m5C])[sp].d(G)[sp].d([m5C])[sp].[moe](A)p.[moe](T)p.[moe](G)[sp].[moe](G)}$$$$ (last 3' nucleoside missing) | 6.25 score 0-7
RNA1{[moe](T)[sp].[moe](A)p.[moe](G)p.[moe]([m5C])p.[moe](A)p.d([m5C])[sp].d(T)[sp].d(T)[sp].d(G)[sp].d(G)[sp].d(T)[sp].d(T)[sp].d([m5C])[sp].d(A)[sp].d(A)[sp].[moe](T)p.[moe](T)p.[moe](T)[sp].[moe](T)}$$$$ (last 3' nucleoside missing) | 6 score 0-7
RNA1{[moe](T)[sp].[moe](A)p.[moe](G)p.[moe]([m5C])p.[moe](T)p.d([m5C])[sp].d(A)[sp].d(T)[sp].d([m5C])[sp].d(A)[sp].d(A)[sp].d(G)[sp].d(G)[sp].d(T)[sp].d(A)[sp].[moe]([m5C])p.[moe]([m5C])p.[moe](A)[sp].[moe](G)}$$$$ (last 3' nucleoside missing) | 3 score 0-7
RNA1{[moe](T)[sp].[moe](A)p.[moe](T)p.[moe](G)p.[moe](A)p.d(G)[sp].d(G)[sp].d(G)[sp].d(A)[sp].d([m5C])[sp].d(T)[sp].d(A)[sp].d(G)[sp].d(A)[sp].d(G)[sp].[moe]([m5C])p.[moe](A)p.[moe](T)[sp].[moe]([m5C])}$$$$ (last 3' nucleoside missing) | 6.25 score 0-7
RNA1{[moe](T)[sp].[moe](A)p.[moe](T)p.[moe](G)p.[moe](T)[sp].d(T)[sp].d(T)[sp].d(G)[sp].d(T)[sp].d([m5C])[sp].d(T)[sp].d(G)[sp].d(T)[sp].[moe]([m5C])p.[moe](T)p.[moe](T)[sp].[moe](A)}$$$$ (last 3' nucleoside missing) | 6 score 0-7
RNA1{[moe](T)[sp].[moe](A)p.[moe](T)p.[moe]([m5C])p.[moe](A)[sp].d(T)[sp].d([m5C])[sp].d(A)[sp].d(T)[sp].d(T)[sp].d(T)[sp].d(T)[sp].d([m5C])[sp].[moe]([m5C])p.[moe](A)p.[moe](G)[sp].[moe](G)}$$$$ (last 3' nucleoside missing) | 1.5 score 0-7
RNA1{[moe](T)[sp].[moe](A)p.[moe](T)p.[moe]([m5C])p.[moe](A)p.d(T)[sp].d([m5C])[sp].d(A)[sp].d(T)[sp].d(T)[sp].d(T)[sp].d(T)[sp].d([m5C])[sp].d([m5C])[sp].d(A)[sp].[moe](G)p.[moe](G)p.[moe](G)[sp].[moe]([m5C])}$$$$ (last 3' nucleoside missing) | 4.75 score 0-7
RNA1{[moe](T)[sp].[moe](A)p.[moe]([m5C])p.[moe](A)p.[moe](G)p.d(G)[sp].d(T)[sp].d(G)[sp].d(A)[sp].d(G)[sp].d(A)[sp].d(T)[sp].d(A)[sp].d(T)[sp].d(A)[sp].[moe](T)p.[moe](A)p.[moe](G)[sp].[moe](G)}$$$$ (last 3' nucleoside missing) | 4 score 0-7
RNA1{[moe](T)[sp].[moe](A)p.[moe]([m5C])p.[moe](A)p.[moe]([m5C])p.d(A)[sp].d(G)[sp].d(T)[sp].d(T)[sp].d(T)[sp].d([m5C])[sp].d(A)[sp].d([m5C])[sp].d(T)[sp].d(A)[sp].[moe](G)p.[moe](G)p.[moe](T)[sp].[moe](T)}$$$$ (last 3' nucleoside missing) | 1 score 0-7
RNA1{[moe](T)[sp].[moe](A)p.[moe]([m5C])p.[moe](G)p.[moe]([m5C])p.d(G)[sp].d(G)[sp].d(T)[sp].d(G)[sp].d(A)[sp].d(A)[sp].d(T)[sp].d(T)[sp].d([m5C])[sp].d(T)[sp].[moe](G)p.[moe](T)p.[moe]([m5C])[sp].[moe](T)}$$$$ (last 3' nucleoside missing) | 0 score 0-7
RNA1{[moe](T)[sp].[moe](A)p.[moe]([m5C])p.[moe](T)p.[moe](G)[sp].d(T)[sp].d(T)[sp].d(T)[sp].d([m5C])[sp].d(G)[sp].d(A)[sp].d([m5C])[sp].d([m5C])[sp].[moe](T)p.[moe]([m5C])p.[moe](T)[sp].[moe](G)}$$$$ (last 3' nucleoside missing) | 4.75 score 0-7
RNA1{[moe](T)[sp].[moe](A)p.[moe]([m5C])p.[moe](T)p.[moe](G)p.d(T)[sp].d(T)[sp].d(T)[sp].d([m5C])[sp].d(G)[sp].d(A)[sp].d([m5C])[sp].d([m5C])[sp].d(T)[sp].d([m5C])[sp].[moe](T)p.[moe](G)p.[moe](A)[sp].[moe](A)}$$$$ (last 3' nucleoside missing) | 3 score 0-7
RNA1{[moe](T)[sp].[moe](A)p.[moe]([m5C])p.[moe](T)p.[moe](T)[sp].d(T)[sp].d(T)[sp].d([m5C])[sp].d(T)[sp].d([m5C])[sp].d(A)[sp].d(T)[sp].d(G)[sp].[moe](T)p.[moe](G)p.[moe]([m5C])[sp].[moe](G)}$$$$ (last 3' nucleoside missing) | 4.75 score 0-7
RNA1{[moe](T)[sp].[moe](A)p.[moe]([m5C])p.[moe](T)p.[moe](T)[sp].d([m5C])[sp].d(A)[sp].d([m5C])[sp].d(A)[sp].d(T)[sp].d(T)[sp].d(T)[sp].d(G)[sp].[moe](G)p.[moe](A)p.[moe](G)[sp].[moe]([m5C])}$$$$ (last 3' nucleoside missing) | 3.25 score 0-7
RNA1{[moe](T)[sp].[moe](A)p.[moe]([m5C])p.[moe](T)p.[moe](T)p.[moe](T)p.d(T)[sp].d([m5C])[sp].d(T)[sp].d([m5C])[sp].d(A)[sp].d(T)[sp].d(G)[sp].d(T)[sp].d(G)[sp].d([m5C])[sp].[moe](G)p.[moe](G)[sp].[moe]([m5C])}$$$$ (last 3' nucleoside missing) | 5.5 score 0-7
RNA1{[moe](T)[sp].[moe](A)p.[moe]([m5C])p.[moe](T)p.[moe](T)p.d(T)[sp].d(T)[sp].d([m5C])[sp].d(T)[sp].d([m5C])[sp].d(A)[sp].d(T)[sp].d(G)[sp].d(T)[sp].d(G)[sp].[moe]([m5C])p.[moe](G)p.[moe](G)[sp].[moe]([m5C])}$$$$ (last 3' nucleoside missing) | 3.75 score 0-7
RNA1{[moe](T)[sp].[moe](A)p.[moe]([m5C])p.[moe](T)p.[moe](T)p.d([m5C])[sp].d(A)[sp].d([m5C])[sp].d(A)[sp].d(T)[sp].d(T)[sp].d(T)[sp].d(G)[sp].d(G)[sp].d(A)[sp].[moe](G)p.[moe]([m5C])p.[moe]([m5C])[sp].[moe]([m5C])}$$$$ (last 3' nucleoside missing) | 5.25 score 0-7
RNA1{[moe](T)[sp].[moe](A)p.[moe]([m5C])p.[moe](T)p.[moe]([m5C])p.d(T)[sp].d([m5C])[sp].d([m5C])[sp].d(A)[sp].d(T)[sp].d(T)[sp].d(A)[sp].d(T)[sp].d(T)[sp].d(T)[sp].[moe]([m5C])p.[moe](T)p.[moe](T)[sp].[moe]([m5C])}$$$$ (last 3' nucleoside missing) | 2.25 score 0-7
RNA1{[moe](T)[sp].[moe](A)p.[moe]([m5C])p.[moe](T)p.d(T)[sp].d(T)[sp].d(T)[sp].d([m5C])[sp].d(T)[sp].d([m5C])[sp].d(A)[sp].d(T)[sp].d(G)[sp].d(T)[sp].[moe](G)p.[moe]([m5C])p.[moe](G)p.[moe](G)[sp].[moe]([m5C])}$$$$ (last 3' nucleoside missing) | 1.75 score 0-7
RNA1{[moe](T)[sp].[moe](G)[sp].[moe]([m5C])[sp].[moe](A)[sp].[moe](T)[sp].d(A)[sp].d(G)[sp].d(A)[sp].d(T)[sp].d(T)[sp].d([m5C])[sp].d([m5C])[sp].d(A)[sp].d(T)[sp].d([m5C])[sp].[moe](A)[sp].[moe](A)[sp].[moe](A)[sp].[moe](A)}$$$$ (last 3' nucleoside missing) | 7 score 0-7
RNA1{[moe](T)[sp].[moe](G)p.[moe](A)p.[moe](G)p.[moe](T)p.d(T)[sp].d([m5C])[sp].d(A)[sp].d([m5C])[sp].d([m5C])[sp].d(T)[sp].d(G)[sp].d([m5C])[sp].d(A)[sp].d(T)[sp].[moe]([m5C])p.[moe]([m5C])p.[moe]([m5C])[sp].[moe](A)}$$$$ (last 3' nucleoside missing) | 5.75 score 0-7
RNA1{[moe](T)[sp].[moe](G)p.[moe](A)p.[moe](T)p.[moe]([m5C])p.d(T)[sp].d(T)[sp].d(G)[sp].d(T)[sp].d(G)[sp].d(T)[sp].d(A)[sp].d(T)[sp].d(A)[sp].d(T)[sp].[moe](A)p.[moe](T)p.[moe](T)[sp].[moe](A)}$$$$ (last 3' nucleoside missing) | 6 score 0-7
RNA1{[moe](T)[sp].[moe](G)p.[moe](G)p.[moe](A)p.[moe](T)[sp].d(T)[sp].d([m5C])[sp].d(T)[sp].d(G)[sp].d(T)[sp].d(A)[sp].d([m5C])[sp].d(T)[sp].[moe](T)p.[moe](T)p.[moe](T)[sp].[moe]([m5C])}$$$$ (last 3' nucleoside missing) | 5.25 score 0-7
RNA1{[moe](T)[sp].[moe](G)p.[moe](G)p.[moe](A)p.[moe](T)p.[moe](T)p.d([m5C])[sp].d(T)[sp].d(G)[sp].d(T)[sp].d(A)[sp].d([m5C])[sp].d(T)[sp].d(T)[sp].d(T)[sp].d(T)[sp].[moe]([m5C])p.[moe](T)[sp].[moe]([m5C])}$$$$ (last 3' nucleoside missing) | 1 score 0-7
